Test results from patent US20250276977A1, “TYK2 INHIBITORS AND USES THEREOF” (Alumis Inc., priority 2019, published 2025).

Legend:
[1] = target: T1, human TYK2 (JH2domain-pseudokinase) (Homo sapiens, UniProt P29597); assay: TYK2 JH2 domain binding assay (KINOMEscan); settings: duplicate
T1 construct: host or cells: transiently transfected HEK293 cells; unpurified extract
Experimental: Binding constants for the compounds described herein against the JH2 domain were determined by the following protocol for a KINOMEscan® assay (DiscoveRx). A fusion protein of a partial length construct of human TYK2 (JH2domain-pseudokinase) (amino acids G556 to D888 based on reference sequence NP_003322.3) and the DNA binding domain of NFkB is expressed in transiently transfected HEK293 cells. From these HEK 293 cells, extracts are prepared in M-PER extraction buffer (Pierce) in the presence of Protease Inhibitor Cocktail Complete (Roche) and Phosphatase Inhibitor Cocktail Set II (Merck) per manufacturers' instructions. The TYK2 (JH2domain-pseudokinase) fusion protein is labeled with a chimeric double-stranded DNA tag containing the NFkB binding site fused to an amplicon for qPCR readout, which is added directly to the expression extract (the final concentration of DNA-tag in the binding reaction is 0.1 nM).
The liganded beads are blocked with excess biotin and washed with blocking buffer (SeaBlock (Pierce), 1% BSA, 0.05% Tween 20, 1 mM DTT) to remove unbound ligand and to reduce nonspecific binding.
Extracts are used directly in binding assays without any enzyme purification steps at a ≥10,000-fold overall stock dilution (final DNA-tagged enzyme concentration <0.1 nM). Extracts are loaded with DNA-tag and diluted into the binding reaction in a two-step process. First extracts are diluted 1:100 in 1× binding buffer (PBS/0.05% Tween 20/10 mM DTT/0.1% BSA/[…] sonicated salmon sperm DNA) containing 10 nM DNA-tag. This dilution is allowed to equilibrate at room temperature for 15 minutes and then subsequently diluted 1:100 in 1× binding buffer. Test compounds were prepared as 111×stocks in 100% DMSO. […] The compounds are then diluted directly into the assays such that the final concentration of DMSO was 0.9%. All reactions are performed in polypropylene 384-well plates. Each was a final volume of 0.02 mL.
Assays are incubated with shaking for 1 hour at room temperature. Then the beads are pelleted and washed with wash buffer (1×PBS, 0.05% Tween 20) to remove displaced kinase and test compound. […] The kinase concentration in the eluates was measured by qPCR. qPCR reactions are assembled by adding […] of kinase eluate to […] of qPCR master mix containing […] amplicon primers and […] amplicon probe. The qPCR protocol consisted of a 10 minute hot start at 95° C., followed by 35 cycles of 95° C. for 15 seconds, 60° C. for 1 minute.
Test compounds are prepared as 111×stocks in 100% DMSO. […] The compounds are then diluted directly into the assays such that the final concentration of DMSO was 0.9%. The Kds are determined using a compound top concentration of 30,000 nM. Kd measurements are performed in duplicate.
Binding constants (Kds) were calculated with a standard dose-response curve using the Hill equation: […]
The Hill Slope was set to −1. Curves were fitted using a non-linear least square fit with the Levenberg-Marquardt algorithm (Levenberg, K., A method for the solution of certain non-linear problems in least squares, Q. Appl. Math. 2, 164-168 (1944)).

[2] = system: JAK2/TYK2 (IL-12 induced pSTAT4); assay: IL-12 induced pSTAT4 in human PBMC; format: cell-based; settings: IL-12 10 ng/ml
Experimental: (§1) Fresh Human PBMCs were resuspended in RPMI 1640 medium with 10% FBS. Cells were seeded in a round bottom 96-well plate at the concentration of 200,000 cells/well. A 10-point dilution series of test compound (top dose 10 uM, 1:5 dilution) was added to the well using the liquid dispenser (Tecan D300e) and incubated for 1 hour at 37 C. Then human IL-12 recombinant protein (R&D Systems) was added to the well at the final concentration of 10 ng/ml and incubated for 15 minutes at 37 C. Cell lysates were prepared and analyzed by Phospho STAT4 (Tyr693) Kit (Meso Scale Discovery) following manufacturer's protocol.
For calculation of the inhibition rate, the relative pSTAT4 signal of each well=pSTAT4 signal of each well−the average pSTAT4 signal of baseline.
The inhibition %=(the average pSTAT4 signal of IL-12 treatment wells—the relative of pSTAT4 signal in each compound containing well)/the average pSTAT4 signal of IL-12 treatment wells*100%
(§2) The curve was plotted as the inhibition % (y-axis) vs. compounds concentration (x-axis) and was fitted with log(inhibitor) vs. normalized response—Variable slope by GraphPad Prism7.0.

INFα induced pSTAT3 = INFα induced pSTAT3 in human PBMC; format: cell-based; settings: INFα 5000 units/ml, read-out: p-STAT3 IC50
Experimental: as §1, with “INFα” for “IL-12”, “5000 units/ml” for “10 ng/ml”, “STAT3 (Tyr705) cellular kit (Cisbio) or Phospho STAT5” for “STAT4”
(§3) For calculation of the inhibition rate, the relative pSTAT signal of each well=pSTAT signal of each well−the average pSTAT signal of baseline.
(§4) The inhibition %=(the average pSTAT signal of INFα treatment wells—the relative of pSTAT signal in each compound containing well)/the average pSTAT signal of INFα treatment wells * 100%
as §2

INFα induced pSTAT5 = INFα induced pSTAT5 in human PBMC; format: cell-based; settings: Homo sapiens, PBMC, INFα 5000 units/ml, read-out: p-STAT5 IC50
Experimental: as §1, with “INFα” for “IL-12”, “5000 units/ml” for “10 ng/ml”, “STAT3 (Tyr705) cellular kit (Cisbio) or Phospho STAT5” for “STAT4”
as §3, §4, §2

[3] = Pharmacokinetic studies in Sprague Dawley rats; format: in vivo; settings: rat, plasma, male Sprague Dawley rats
Experimental: The pharmacokinetics of test compounds were evaluated in male Sprague Dawley rats when administered via oral gavage and IV injection. The test compound was suspended in 0.5% methylcellulose for oral gavage and dissolved in 5% DMSO/5% Solutol/90% saline for IV injection. The animals were fasted overnight before administration. Plasma samples were collected predose and at 0.5, 1, 3, 6, 9, 12, and 24 hours postdose. The samples were analyzed by LC/MS/MS and the concentration of test compound at each timepoint was determined by linear regression. Pharmacokinetic parameters were calculated from the plasma concentrations using Pheonix WinNonlin.

IL-2-induced pSTAT5 = IL-2-induced pSTAT5 in human PBMC; format: cell-based; settings: 20 ng/ml of IL-2
Experimental: (§5) Similar to the method for INFα induced pSTAT5 in human PBMC described above, these assays were performed to check if test compounds have cross-activity to JAK1. JAK2 and JAK3 pathways in human PBMC. The procedure is as described with change of stimuli to 10 ng/ml of GM-CSF or 20 ng/ml of IL-2.

JAK1 (JH2 domain) = target: T2, JAK1 (JH2 domain) (Homo sapiens, UniProt P23458); assay: JAK1 JH2 domain binding assay (KINOMEscan)
T2 construct: inferred from 'similar to the method' for TYK2 JH2; DiscoverX (KINOMEscan)
T2 sequence (P23458 583-855 limits assumed): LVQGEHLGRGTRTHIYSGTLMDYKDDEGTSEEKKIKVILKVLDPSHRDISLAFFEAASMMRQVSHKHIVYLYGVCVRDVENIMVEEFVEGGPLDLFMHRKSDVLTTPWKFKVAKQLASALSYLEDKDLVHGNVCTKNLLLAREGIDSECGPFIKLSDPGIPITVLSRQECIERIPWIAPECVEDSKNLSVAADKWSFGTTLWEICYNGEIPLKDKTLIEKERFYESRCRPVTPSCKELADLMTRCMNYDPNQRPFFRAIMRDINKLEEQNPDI
Experimental: (§6) Similar to the method for TYK2 JH2 binding described above, JAK1 JH2 and JAK2 JH1 domain binding assay was performed using DiscoverX's KINOMEscan™, but with change of kinase domain. These assays were performed to compare the binding selectivity of test compounds to JAK1 JH2 and JAK2 JH1 domain.

JAK2 (JH1 domain) = target: T3, JAK2 (JH1 domain) (Homo sapiens, UniProt O60674); assay: JAK2 JH1 domain binding assay (KINOMEscan)
T3 construct: inferred from 'similar to the method' for TYK2 JH2; DiscoverX (KINOMEscan)
T3 sequence (O60674 849-1124 limits assumed): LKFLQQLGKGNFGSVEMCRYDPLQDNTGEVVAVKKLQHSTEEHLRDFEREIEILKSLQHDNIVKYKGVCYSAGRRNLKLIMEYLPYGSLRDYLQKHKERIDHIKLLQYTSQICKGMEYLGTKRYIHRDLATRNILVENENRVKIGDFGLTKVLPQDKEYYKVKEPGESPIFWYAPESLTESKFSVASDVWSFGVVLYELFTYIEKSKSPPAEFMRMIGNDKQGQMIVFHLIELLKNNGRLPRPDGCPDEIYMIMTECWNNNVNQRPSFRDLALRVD
Experimental: as §6

GM-CSF-induced pSTAT5 = GM-CSF-induced pSTAT5 in human PBMC; format: cell-based; settings: 10 ng/ml of GM-CSF
Experimental: as §5

T1 sequence (P29597 556-888): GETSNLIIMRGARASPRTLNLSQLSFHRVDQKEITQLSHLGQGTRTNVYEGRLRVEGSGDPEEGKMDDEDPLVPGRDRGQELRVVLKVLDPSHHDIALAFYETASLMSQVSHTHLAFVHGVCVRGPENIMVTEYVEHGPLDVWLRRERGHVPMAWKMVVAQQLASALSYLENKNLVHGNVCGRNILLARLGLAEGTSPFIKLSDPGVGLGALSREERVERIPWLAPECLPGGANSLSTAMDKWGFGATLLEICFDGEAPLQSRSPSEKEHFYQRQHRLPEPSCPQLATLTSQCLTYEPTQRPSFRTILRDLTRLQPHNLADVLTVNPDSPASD

Row | Compound | Kd [1] [nM] | IC50 [2] [nM] | IC50 (INFα induced pSTAT5) [nM] | IC50 (IL-2-induced pSTAT5) [nM] | further results
1 | CNc1cc2nc3c(cnn13)C(=O)NCCOCc1cnc(OC)c(c1)N2 [Example 1] | 0.24 | 281 |  |  | IC50 (INFα induced pSTAT3): 87.5 nM
2 | CNc1cc2nn3c(cnc13)C(=O)NC(C)COCc1ccc(OC)c(c1)N2 (stereo not drawn) [Example 7] | 0.0071 |  | 2.3 |  | AUC ([3]; iv, I.V. (1 mg/kg)): 0.318 ± 0.03 µg·h/mL; C0 ([3]; iv, I.V. (1 mg/kg)): 1.23 ± 0.153 µg/mL; clearance ([3]; iv, I.V. (1 mg/kg)): 3.14 ± 0.318 L/h/kg; half-life ([3]; iv, I.V. (1 mg/kg)): 18 ± 0.96 min; Vd ([3]; iv, I.V. (1 mg/kg), read-out: Vdss): 0.956 ± 0.1 L/kg; AUC ([3]; Oral (5 mg/kg)): 0.0849 ± 0.036 µg·h/mL; Cmax ([3]; Oral (5 mg/kg)): 0.0182 ± 0.0031 µg/mL; Tmax ([3]; Oral (5 mg/kg)): 40 ± 17.4 min; bioavailability ([3]; Oral (5 mg/kg)): 5.34 ± 2.3%; half-life ([3]; Oral (5 mg/kg)): 238 ± 66 min
3 | CNc1cc2nn3c(cnc13)C(=O)N[C@H](C)COCc1cc(c(OC)c(F)c1F)N2 [Example 19, (7R,E)-3^4,3^5-difluoro-3^6-methoxy-7-methyl-1^8-(methylamino)-5-oxa-2,8-diaza-1(6,3)-imidazo[1,2-b]pyridazina-3(1,3)-benzenacyclononaphan-9-one] |  |  | 8.7 | 38500 | 
4 | CNc1cc2nc3c(cnn13)C(=O)N[C@H](C)COCc1ccc(C(F)(F)F)c(c1)N2 [Example 10] | 0.0023 |  | 1.2 | > 10000 | Kd (JAK1 (JH2 domain)): 430 nM; Kd (JAK2 (JH1 domain)): 7300 nM
5 | CNc1cc2nn3c(cnc13)C(=O)NCCCOc1ccc(OC)c(c1)N2 [Example 4] | 0.38 | 16.1 |  |  | 
6 | CNc1cc2nc3c(cnn13)C(=O)NCCOCc1ccc(OC)c(c1)N2 [Example 2] | 0.14 | 12.2 |  |  | 
7 | CNc1cc2nn3c(cnc13)C(=O)N[C@H](C)COCc1cc(c3nn(C)cc3c1)N2 [Example 24] |  |  | 0.5 | 9390 | 
8 | CNc1cc2nc3c(cnn13)C(=O)NCCCOc1ccc(OC)c(c1)N2 [Example 3] | 0.96 | 1150 |  |  | IC50 (INFα induced pSTAT3): 1460 nM
9 | [2H]C([2H])([2H])NC(=O)c1nnc(NC(=O)C2CC2)cc1Nc1cccc(-c2ncn(C)n2)c1OC [control, BMS-986165, reference compound] |  |  |  | 442 | IC50 (GM-CSF-induced pSTAT5): 1310 nM
